{"source": "patent US20070129344A1", "about": "“Bicyclic 6-alkylidene-penem beta-lactamase inhibitors and beta-lactam antibiotic combination: a broad spectrum antibiotic” (priority 2005, published 2007)", "conditions_in_all_cases": "Cefepime + 4 ug/ml Compound 1", "key": {"[1]": {"tested_on": "K. pn GC 6655 (TEM-1 + ACT-1)", "assay": "MIC microbroth dilution; β-lactamase class A, C", "type": "cell-based, K. pneumoniae", "description": "(§1) The in vitro activities of the antibiotics were determined by the microbroth dilution method as recommended by the National Committee for Clinical Laboratory Standards (NCCLS). (NCCLS. 2000. Methods for Dilution Antimicrobial Susceptibility Tests for Bacteria That Grow Aerobically; Approved Standards: M7-A5, vol. 19. National Committee for Clinical Laboratory Standards, Villanova, Pa.). Mueller-Hinton II broth (MHBII)(BBL Cockeysville, Md.), was used for the testing procedure. […]. The plates were incubated for 18-22 hours at 35° C. in ambient air."}, "[2]": {"tested_on": "K. pn GC 3104 (MIR-1 + TEM-1)", "assay": "MIC microbroth dilution; β-lactamase class A, C", "type": "cell-based, K. pneumoniae", "description": "as §1"}, "[3]": {"tested_on": "A. baumannii GC 6661 IMI-R", "assay": "MIC microbroth dilution; class PBP (penicillin binding protein)", "type": "cell-based", "description": "as §1"}, "[4]": {"tested_on": "A. baumannii GC 6662 IMI-R", "assay": "MIC microbroth dilution; class PBP (penicillin binding protein)", "type": "cell-based", "description": "as §1"}, "[5]": {"tested_on": "A. baumannii GC 6660 IMI-R", "assay": "MIC microbroth dilution; class PBP (penicillin binding protein)", "type": "cell-based", "description": "as §1"}, "[6]": {"tested_on": "S. typhimurium GC 4197 CTX-M-5", "assay": "MIC microbroth dilution; β-lactamase class A (ESBL)", "type": "cell-based", "description": "as §1"}, "E. coli GC 1995 (TEM-10)": {"tested_on": "E. coli GC 1995 (TEM-10)", "assay": "MIC microbroth dilution; β-lactamase class A (ESBL)", "type": "cell-based", "description": "as §1"}, "E. coli GC 2400 (TEM-43)": {"tested_on": "E. coli GC 2400 (TEM-43)", "assay": "MIC microbroth dilution; β-lactamase class A (ESBL)", "type": "cell-based", "description": "as §1"}, "E. coli GC 1684 (TEM-10)": {"tested_on": "E. coli GC 1684 (TEM-10)", "assay": "MIC microbroth dilution; β-lactamase class A (ESBL)", "type": "cell-based", "description": "as §1"}, "[7]": {"tested_on": "E. coli GC 2017 (TEM-10 + pl 6.3; 8.1)", "assay": "MIC microbroth dilution; β-lactamase class A (ESBL)", "type": "cell-based", "description": "as §1"}, "E. coli GC 6368 (SHV-7)": {"tested_on": "E. coli GC 6368 (SHV-7)", "assay": "MIC microbroth dilution; β-lactamase class A (ESBL)", "type": "cell-based", "description": "as §1"}, "E. coli GC 2300 (TEM-28)": {"tested_on": "E. coli GC 2300 (TEM-28)", "assay": "MIC microbroth dilution; β-lactamase class A (ESBL)", "type": "cell-based", "description": "as §1"}, "K. pn GC 1832 (SHV-4)": {"tested_on": "K. pn GC 1832 (SHV-4)", "assay": "MIC microbroth dilution; β-lactamase class A (ESBL)", "type": "cell-based, K. pneumoniae", "description": "as §1"}, "K. pn GC 1830 (SHV-2)": {"tested_on": "K. pn GC 1830 (SHV-2)", "assay": "MIC microbroth dilution; β-lactamase class A (ESBL)", "type": "cell-based, K. pneumoniae", "description": "as §1"}, "K. pn GC 1510 (TEM-10)": {"tested_on": "K. pn GC 1510 (TEM-10)", "assay": "MIC microbroth dilution; β-lactamase class A (ESBL)", "type": "cell-based, K. pneumoniae", "description": "as §1"}, "K. pn GC 1516 (TEM-26)": {"tested_on": "K. pn GC 1516 (TEM-26)", "assay": "MIC microbroth dilution; β-lactamase class A (ESBL)", "type": "cell-based, K. pneumoniae", "description": "as §1"}, "K. pn GC 6639 (SHV-13)": {"tested_on": "K. pn GC 6639 (SHV-13)", "assay": "MIC microbroth dilution; β-lactamase class A (ESBL)", "type": "cell-based, K. pneumoniae", "description": "as §1"}, "[8]": {"tested_on": "E. coli GC 2015 (TEM-10 + SHV-1)", "assay": "MIC microbroth dilution; β-lactamase class A, A (ESBL)", "type": "cell-based", "description": "as §1"}, "[9]": {"tested_on": "E. coli GC 5901 (TEM-1 and SHV-8)", "assay": "MIC microbroth dilution; β-lactamase class A, A (ESBL)", "type": "cell-based", "description": "as §1"}, "[10]": {"tested_on": "E. coli GC 1499 (TEM-4 + TEM-1)", "assay": "MIC microbroth dilution; β-lactamase class A, A (ESBL)", "type": "cell-based", "description": "as §1"}, "[11]": {"tested_on": "E. coli GC 6260 (TEM-1 + SHV-5)", "assay": "MIC microbroth dilution; β-lactamase class A, A (ESBL)", "type": "cell-based", "description": "as §1"}, "[12]": {"tested_on": "E. coli GC 1695 (TEM-1 + TEM-10)", "assay": "MIC microbroth dilution; β-lactamase class A, A (ESBL)", "type": "cell-based", "description": "as §1"}, "[13]": {"tested_on": "E. coli GC 2146 (TEM-1; SHV-7)", "assay": "MIC microbroth dilution; β-lactamase class A, A (ESBL)", "type": "cell-based", "description": "as §1"}, "[14]": {"tested_on": "A. baumannii PT 8321 PTZ-R", "assay": "MIC microbroth dilution; β-lactamase class not determined", "type": "cell-based", "description": "as §1"}, "[15]": {"tested_on": "A. baumannii PT 9158 PTZ-R", "assay": "MIC microbroth dilution; β-lactamase class not determined", "type": "cell-based", "description": "as §1"}, "[16]": {"tested_on": "S. maltophilia GC 1712 (L1)", "assay": "MIC microbroth dilution; β-lactamase class B", "type": "cell-based", "description": "as §1"}, "[17]": {"tested_on": "K. pneumoniae GC 7635 SHV-1, KPC2", "assay": "MIC microbroth dilution; β-lactamase class A, A (Cb'ase)", "type": "cell-based", "description": "as §1"}, "E. coli GC 2847 (TEM-1)": {"tested_on": "E. coli GC 2847 (TEM-1)", "assay": "MIC microbroth dilution; β-lactamase class A", "type": "cell-based", "description": "as §1"}, "[18]": {"tested_on": "P. aeruginosa PT 8503 PTZ-R", "assay": "MIC microbroth dilution", "type": "cell-based", "description": "as §1"}, "[19]": {"tested_on": "P. aeruginosa PT 9587 PTZ-R", "assay": "MIC microbroth dilution", "type": "cell-based", "description": "as §1"}, "[20]": {"tested_on": "P. aeruginosa PT 8411 PTZ-R", "assay": "MIC microbroth dilution", "type": "cell-based", "description": "as §1"}, "[21]": {"tested_on": "P. aeruginosa PT 9236 PTZ-R", "assay": "MIC microbroth dilution", "type": "cell-based", "description": "as §1"}, "[22]": {"tested_on": "E. coli GC 2149 (ACT-1; TEM-1 + pl 5.6)", "assay": "MIC microbroth dilution; β-lactamase class A, A (ESBL), C", "type": "cell-based", "description": "as §1"}, "[23]": {"tested_on": "E. coli GC 6197 (TEM-1 + SHV-7 + CMY-2)", "assay": "MIC microbroth dilution; β-lactamase class A, A (ESBL), C", "type": "cell-based", "description": "as §1"}, "[24]": {"tested_on": "K. pneumoniae GC 2825 Act 1 + 3 additional", "assay": "MIC microbroth dilution; β-lactamase class A, A (ESBL), C", "type": "cell-based", "description": "as §1"}, "[25]": {"tested_on": "K. pneumoniae GC 2826 Act 1 + 3 additional", "assay": "MIC microbroth dilution; β-lactamase class A, A (ESBL), C", "type": "cell-based", "description": "as §1"}}}
{"smiles": "O=C([O-])C1=CS[C@@H]2/C(=C\\c3cn4c(n3)CCC4)C(=O)N12.[Na+]", "note": "[Compound 1, (5R), (6Z)-6-(6,7-Dihydro-5H-pyrrolo[1,2-a]imidazol-2-ylmethylene)-7-oxo-4-thia-1-aza-bicyclo[3.2.0]hept-2-ene-2-carboxylic Acid, Sodium Salt]", "values": [{"measurement": "MIC", "setting": "[1]", "value": 0.12, "unit": "µg/mL"}, {"measurement": "MIC", "setting": "[2]", "value": 0.50, "unit": "µg/mL"}, {"measurement": "MIC", "setting": "[3]", "value": 16, "unit": "µg/mL"}, {"measurement": "MIC", "setting": "[4]", "value": ">16", "unit": "µg/mL"}, {"measurement": "MIC", "setting": "[5]", "value": ">16", "unit": "µg/mL"}, {"measurement": "MIC", "setting": "[6]", "value": 1, "unit": "µg/mL"}, {"measurement": "MIC", "setting": "E. coli GC 1995 (TEM-10)", "value": 0.06, "unit": "µg/mL"}, {"measurement": "MIC", "setting": "E. coli GC 2400 (TEM-43)", "value": 0.50, "unit": "µg/mL"}, {"measurement": "MIC", "setting": "E. coli GC 1684 (TEM-10)", "value": 0.06, "unit": "µg/mL"}, {"measurement": "MIC", "setting": "[7]", "value": 0.12, "unit": "µg/mL"}, {"measurement": "MIC", "setting": "E. coli GC 6368 (SHV-7)", "value": 0.03, "unit": "µg/mL"}, {"measurement": "MIC", "setting": "E. coli GC 2300 (TEM-28)", "value": 0.25, "unit": "µg/mL"}, {"measurement": "MIC", "setting": "K. pn GC 1832 (SHV-4)", "value": 0.06, "unit": "µg/mL"}, {"measurement": "MIC", "setting": "K. pn GC 1830 (SHV-2)", "value": 0.03, "unit": "µg/mL"}, {"measurement": "MIC", "setting": "K. pn GC 1510 (TEM-10)", "value": 0.06, "unit": "µg/mL"}, {"measurement": "MIC", "setting": "K. pn GC 1516 (TEM-26)", "value": 0.25, "unit": "µg/mL"}, {"measurement": "MIC", "setting": "K. pn GC 6639 (SHV-13)", "value": 0.25, "unit": "µg/mL"}, {"measurement": "MIC", "setting": "[8]", "value": 0.25, "unit": "µg/mL"}, {"measurement": "MIC", "setting": "[9]", "value": 4, "unit": "µg/mL"}, {"measurement": "MIC", "setting": "[10]", "value": 0.50, "unit": "µg/mL"}, {"measurement": "MIC", "setting": "[11]", "value": 0.03, "unit": "µg/mL"}, {"measurement": "MIC", "setting": "[12]", "value": 0.03, "unit": "µg/mL"}, {"measurement": "MIC", "setting": "[13]", "value": 0.12, "unit": "µg/mL"}, {"measurement": "MIC", "setting": "[14]", "value": ">16", "unit": "µg/mL"}, {"measurement": "MIC", "setting": "[15]", "value": 16, "unit": "µg/mL"}, {"measurement": "MIC", "setting": "[16]", "value": 16, "unit": "µg/mL"}, {"measurement": "MIC", "setting": "[17]", "value": 8, "unit": "µg/mL"}, {"measurement": "MIC", "setting": "E. coli GC 2847 (TEM-1)", "value": 0.06, "unit": "µg/mL"}, {"measurement": "MIC", "setting": "[18]", "value": 2, "unit": "µg/mL"}, {"measurement": "MIC", "setting": "[19]", "value": 2, "unit": "µg/mL"}, {"measurement": "MIC", "setting": "[20]", "value": 4, "unit": "µg/mL"}, {"measurement": "MIC", "setting": "[21]", "value": 16, "unit": "µg/mL"}, {"measurement": "MIC", "setting": "[22]", "value": 0.50, "unit": "µg/mL"}, {"measurement": "MIC", "setting": "[23]", "value": 4, "unit": "µg/mL"}, {"measurement": "MIC", "setting": "[24]", "value": 0.12, "unit": "µg/mL"}, {"measurement": "MIC", "setting": "[25]", "value": 1, "unit": "µg/mL"}]}
